Data on 18 molecules can be found in patent US9266904B2, “6-bridged heteroaryldihydropyrimidines for the treatment and prophylaxis of hepatitis B virus infection” (priority 2013, dated 2016).

Like-named read-outs stand apart in the source and are kept apart here.

Data set [1] is described as follows: Human microsomal clearance assay. In kind it is in vitro ADME. The method, then:
Microsomes were preincubated with test compound for 10 minutes at 37° C. in 100 mM phosphate buffer with pH 7.4. The reactions were initiated by adding NADPH regenerating system to give a final incubation volume of 400 μL. The incubations finally contained 1 μM test compound, 0.5 mg/mL liver microsomal protein, 3.0 mM glucose 6-phosphate, 1.0 mM NADP, 3.0 mM MgCl2 and 0.05 mg/mL glucose 6-phosphate dehydrogenase in 100 mM phosphate buffer with pH 7.4. After incubation times of 0, 3, 6, 9, 15 and 30 minutes, 50 μL, incubation was transferred to the quench solution containing the internal standard which was 2 μM tolbutamide. After precipitation and centrifugation, test compound concentrations in the samples were determined by LC-MS/MS. Controls of no NADPH regenerating system at zero and 30 minutes were also prepared and analyzed.

Data set [2] relates to HBV replication in HepG2.2.15 cells. Description: Anti-HBV activity in vitro in HepG2.2.15 cells (extracellular HBV DNA by qPCR). In kind it is cell-based. The note with it: read-out: EC50. The source says: HepG2.2.15 and HepDE19 are stably-transfected cell lines containing the HBV genome. Both cell lines are derived from the hepatoblastoma cell line Hep G2 (American Type Culture Collection, ATCC® HB-8065™) by the published procedures described in references: M A Selles et al. Proc. Natl. Acad. Sci. USA 1987, 84, 1005-1009 and H Guo et al. Journal of Virology 2007, 81, 12472-12484, respectively. Both cell lines were maintained in Dulbecco's modified Eagle's medium (DMEM)-F12 medium supplemented with 10% fetal bovine serum, 100 U/mL penicillin, 100 μg/mL streptomycin, and 0.5 mg/mL of G418.
While HepG2.2.15 cells constitutively support HBV replication and production of virus particles, HepDE19 cells are inducible by tetracycline. Addition of 1 μg/mL tetracycline in culture medium suppresses HBV replication in HepDE19 cells, whereas switching to tetracycline-free medium resumes this process.
HepG2.2.15 cells were seeded into 96-well plates (3×10^4 cells in 100 μL media per well) and incubated overnight at 37° C. The test compounds were serially half-log diluted in DMSO, then diluted 100 times in culture media. 100 μL diluted compounds were added into the plates to reach 0.5% final concentration of DMSO in every well. Five days after compound treatment, culture supernatant was collected for further analysis.
For quantitative PCR detection of extracellular HBV DNA, 100 μL culture supernatant was collected and processed in MagNA Pure 96 Nucleic Acid Purification System (Roche Applied Science) for viral DNA extraction. The extracted samples were subjected to HBV DNA quantification by qPCR. The effective compound concentration at which HBV replication is inhibited by 50% (EC50) was determined.
The Examples were tested in the above assays as described herein and found to have EC50<1 μM in HepG2.2.15 assay.
Background: Real-time PCR tracks product formation cycle by cycle.

Setting [3] is: Anti-HBV activity in HepG2.2.15 cells.
Setting [4] is: Hepatitis B virus, HepG2.2.15, Anti-HBV activity in HepG2.2.15 cells.

As usually defined, the EC50 is the concentration at which the effect is half-maximal.

On to `COC(=O)C1=C(CN2C3COCC2CC(OC(C)=O)C3)NC(c2nccs2)=N[C@H]1c1ccc(F)cc1Cl` (stereo partly drawn) [Example 8, (R)-6-(7-Acetoxy-3-oxa-9-aza-bicyclo[3.3.1]non-9-ylmethyl)-4-(2-chloro-4-fluoro-phenyl)-2-thiazol-2-yl-1,4-dihydro-pyrimidine-5-carboxylic acid methyl ester], for which the CLh in data set [1] (human, 1 μM, pH 7.4) was 0 L/h/kg. Consider `COC(=O)C1=C(CN2[C@H]3C[C@@H](CC(=O)O)C[C@@H]2C(F)(F)C3)NC(c2nccs2)=N[C@H]1c1ccc(Cl)c(F)c1` [Example 97, 2-[(1S,3R,5R)-8-[[(48)-4-(4-chloro-3-fluoro-phenyl)-5-methoxycarbonyl-2-thiazol-2-yl-1,4-dihydropyrimidin-6-yl]methyl]-6,6-difluoro-8-azabicyclo[3.2.1]octan-3-yl]acetic acid], for which, in data set [2] (setting [3]), the EC50 worked out at 0.156 µM. The molecule further showed a CLh in data set [1] (human microsomal clearance) of 0 L/h/kg. Take `CCOC(=O)C1=C(CN2C3CC(C(=O)O)CC2C(F)(F)C3)NC(c2nccs2)=N[C@H]1c1cccc(F)c1Cl` (stereo partly drawn) [Example 150, 8-[[(4R)-4-(2-chloro-3-fluoro-phenyl)-5-ethoxycarbonyl-2-thiazol-2-yl-1,4-dihydropyrimidin-6-yl]methyl]-6,6-difluoro-8-azabicyclo[3.2.1]octane-3-carboxylic acid]: in data set [2] (setting [4]), the EC50 is 0.0077 µM. The CLh in data set [1] (human, 1 μM, pH 7.4) was determined as 0.186 L/h/kg. Turning to `COC(=O)C1=C(CN2[C@H]3C[C@H](CC(=O)O)C[C@@H]2C(F)(F)C3)NC(c2nccs2)=N[C@H]1c1ccc(F)cc1Cl` [Example 110, 2-[(1S,3S,5R)-8-[[(4R)-4-(2-chloro-4-fluoro-phenyl)-5-methoxycarbonyl-2-thiazol-2-yl-1,4-dihydropyrimidin-6-yl]methyl]-6,6-difluoro-8-azabicyclo[3.2.1]octan-3-yl]acetic acid], the 50% effective concentration (EC50) in data set [2] (setting [4]) stood at 0.0443 µM. Also, the CLh in data set [1] (human, 1 μM, pH 7.4) was found to be 0.246 L/h/kg.

As to `CCOC(=O)C1=C(CN2[C@H]3C[C@@H](CC(=O)O)C[C@@H]2C(F)(F)C3)NC(c2nccs2)=N[C@H]1c1cccc(F)c1Cl` [Example 99, 2-[(1S,3R,5R)-8-[[(4R)-4-(2-chloro-3-fluoro-phenyl)-5-ethoxycarbonyl-2-thiazol-2-yl-1,4-dihydropyrimidin-6-yl]methyl]-6,6-difluoro-8-azabicyclo[3.2.1]octan-3-yl]acetic acid], the EC50 in data set [2] (setting [4]) came out at 0.0126 µM. The molecule further gave a CLh in data set [1] (human, 1 μM, pH 7.4) of 0.18 L/h/kg. The like results for `COC(=O)C1=C(CN2[C@@H]3C[C@H](CC(=O)O)C[C@H]2C(F)(F)C3)NC(c2nccs2)=N[C@H]1c1ccc(Cl)c(F)c1` [Example 96, 2-[(1R,3S,5S)-8-[[(4S)-4-(4-chloro-3-fluoro-phenyl)-5-methoxycarbonyl-2-thiazol-2-yl-1,4-dihydropyrimidin-6-yl]methyl]-6,6-difluoro-8-azabicyclo[3.2.1]octan-3-yl]acetic acid] were, in that order, 0.0068 µM and 0.108 L/h/kg. Take `CCOC(=O)C1=C(CN2C3COCC2C(F)(F)[C@@H](CC(=O)O)C3)NC(c2nccs2)=N[C@H]1c1ccc(F)c(F)c1C` (stereo partly drawn) [Example 127, 2-[(7R)-9-[[(4S)-4-(3,4-difluoro-2-methyl-phenyl)-5-ethoxycarbonyl-2-thiazol-2-yl-1,4-dihydropyrimidin-6-yl]methyl]-6,6-difluoro-3-oxa-9-azabicyclo[3.3.1]nonan-7-yl]acetic acid]: the concentration giving a half-maximal response (EC50) in data set [2] (setting [4]) came to 0.0161 µM. The same molecule registered a CLh in data set [1] (human, 1 μM, pH 7.4) of 0.174 L/h/kg.

In the case of `CCOC(=O)C1=C(CN2[C@H]3C[C@@H](CC(=O)O)C[C@@H]2C(F)(F)C3)NC(c2nccs2)=N[C@H]1c1ccccc1Br` [Example 93, 2-[(1S,3R,5R)-8-[[(4R)-4-(2-bromophenyl)-5-ethoxycarbonyl-2-thiazol-2-yl-1,4-dihydropyrimidin-6-yl]methyl]-6,6-difluoro-8-azabicyclo[3.2.1]octan-3-yl]acetic acid], the EC50 in data set [2] (setting [4]) stood at 0.0289 µM. Also, the CLh in data set [1] (human, 1 μM, pH 7.4) was determined as 0.012 L/h/kg. As for `CCOC(=O)C1=C(CN2C3COCC2C(F)(F)[C@@H](CC(=O)O)C3)NC(c2nccs2)=N[C@H]1c1cccc(F)c1Cl` (stereo partly drawn) [Example 129, 2-[(7R)-9-[[(4R)-4-(2-chloro-3-fluoro-phenyl)-5-ethoxycarbonyl-2-thiazol-2-yl-1,4-dihydropyrimidin-6-yl]methyl]-6,6-difluoro-3-oxa-9-azabicyclo[3.3.1]nonan-7-yl]acetic acid], in data set [2] (setting [4]), the EC50 was found to be 0.021 µM. The molecule also came in with a CLh in data set [1] (human, 1 μM, pH 7.4) of 0.12 L/h/kg.

In the case of `COC(=O)C1=C(CN2[C@@H]3COC[C@H]2C[C@@H](NC(N)=O)C3)NC(c2nccs2)=N[C@H]1c1ccc(F)cc1Cl` [Example 57, Methyl (4R)-4-(2-chloro-4-fluoro-phenyl)-2-thiazol-2-yl-6-[[(1S,5R)-7-endo-ureido-3-oxa-9-azabicyclo[3.3.1]nonan-9-yl]methyl]-1,4-dihydropyrimidine-5-carboxylate], the half-maximal effective concentration (EC50) in data set [2] (setting [4]) came to 0.0219 µM. Moreover, the CLh in data set [1] (human, 1 μM, pH 7.4) is 0.3 L/h/kg.

Regarding `CCOC(=O)C1=C(CN2[C@@H]3C[C@H](CC(=O)O)C[C@H]2C(F)(F)C3)NC(c2nccs2)=N[C@H]1c1ccccc1Br` [Example 92, 2-[(1R,3S,5S)-8-[[(4R)-4-(2-bromophenyl)-5-ethoxycarbonyl-2-thiazol-2-yl-1,4-dihydropyrimidin-6-yl]methyl]-6,6-difluoro-8-azabicyclo[3.2.1]octan-3-yl]acetic acid], in data set [2] (setting [4]), the EC50 is 0.0015 µM. In data set [1] (human, 1 μM, pH 7.4), this molecule displayed a CLh of 0.102 L/h/kg. For `COC(=O)C1=C(CN2C3CC(F)(F)C2C[C@](O)(CC(=O)O)C3)NC(c2nccs2)=N[C@H]1c1ccc(F)cc1Cl` (single isomer, unassigned) [Example 117], the EC50 in data set [2] (setting [4]) was 0.0402 µM. Also, the CLh in data set [1] (human, 1 μM, pH 7.4) came out at 0.108 L/h/kg.

As to `COC(=O)C1=C(CN2[C@@H]3COC[C@H]2[C@H](F)[C@@H](CC(=O)O)C3)NC(c2nccs2)=N[C@H]1c1cccc(F)c1Cl` [Example 100, 2-[(1S,5S,6R,7R)-9-[[(4R)-4-(2-chloro-3-fluoro-phenyl)-5-methoxycarbonyl-2-thiazol-2-yl-1,4-dihydropyrimidin-6-yl]methyl]-6-fluoro-3-oxa-9-azabicyclo[3.3.1]nonan-7-yl]acetic acid], the 50% effective concentration (EC50) in data set [2] (setting [4]) came to 0.283 µM. The molecule also registered a CLh in data set [1] (human, 1 μM, pH 7.4) of 0 L/h/kg. For `COC(=O)C1=C(CN2C3COCC2c2c(C)n[nH]c2C3)NC(c2nccs2)=N[C@H]1c1ccc(F)cc1Cl` (stereo partly drawn) [Example 32, (R)-4-(2-Chloro-4-fluoro-phenyl)-6-(3-methyl-10-oxa-4,5,12-triaza-tricyclo[6.3.1.0*2,6*]dodeca-2(6),3-dien-12-ylmethyl)-2-thiazol-2-yl-1,4-dihydro-pyrimidine-5-carboxylic acid methyl ester], in data set [2] (setting [4]), the EC50 was 0.032 µM. Consider `COC(=O)C1=C(CN2C3COCC2CC(C(O)C(=O)OC)C3)NC(c2nccs2)=N[C@H]1c1ccc(F)cc1Cl` (stereo partly drawn) [Example 30, (R)-4-(2-Chloro-4-fluoro-phenyl)-6-[7-(hydroxy-methoxycarbonyl-methyl)-3-oxa-9-aza-bicyclo[3.3.1]non-9-ylmethyl]-2-thiazol-2-yl-1,4-dihydro-pyrimidine-5-carboxylic acid methyl ester], for which the EC50 in data set [2] (setting [4]) was determined as 0.011 µM.

`CNS(=O)(=O)N1CC2COCC(C1)N2CC1=C(C(=O)OC)[C@H](c2ccc(F)cc2Cl)N=C(c2nccs2)N1` [Example 16, (R)-4-(2-Chloro-4-fluoro-phenyl)-6-(7-methylsulfamoyl-3-oxa-7,9-diaza-bicyclo[3.3.1]non-9-ylmethyl)-2-thiazol-2-yl-1,4-dihydro-pyrimidine-5-carboxylic acid methyl ester]: in data set [2] (setting [4]), the EC50 is 0.015 µM. Consider `COC(=O)C1=C(CN2C3COCC2CC(O)C3)NC(c2nccs2)=N[C@H]1c1ccc(F)cc1Cl` (stereo partly drawn) [Example 9, (R)-4-(2-Chloro-4-fluoro-phenyl)-6-(7-hydroxy-3-oxa-9-aza-bicyclo[3.3.1]non-9-ylmethyl)-2-thiazol-2-yl-1,4-dihydro-pyrimidine-5-carboxylic acid methyl ester], for which the EC50 in data set [2] (setting [3]) stood at 0.014 µM.

For the molecule `COC(=O)C1=C(CN2C3COCC2CC(CC(=O)O)C3)NC(c2nccs2)=NC1c1ccc(F)c(F)c1` (stereo not drawn) [Example 27, 6-(7-Carboxymethyl-3-oxa-9-aza-bicyclo[3.3.1]non-9-ylmethyl)-4-(3,4-difluoro-phenyl)-2-thiazol-2-yl-1,4-dihydro-pyrimidine-5-carboxylic acid methyl ester], the EC50 in data set [2] (setting [4]) stood at 0.254 µM.
